According to patent US7338949B2, “Mycobacterial inhibitors” (Janssen Pharmaceutica N.V., priority 2004, dated 2008):

Experiments:
M. Smegmatis ATCC607 = assay: In-vitro method for testing compounds for anti-bacterial activity against strain M. Smegmatis ATCC607; format: cell-based; settings: M. smegmatis growth inhibition, 48 hours at 37° C., Alamar Blue fluorescence; for IC50: Mycolicibacterium smegmatis, ATCC607, 48 h
Procedure: D.2. In-vitro method for testing compounds for anti-bacterial activity against strain M. Smegmatis ATCC607.
Flat-bottom, sterile 96-well plastic microtiter plates were filled with 180 μl of sterile deionized water, supplemented with 0.25% BSA. Subsequently, stock solutions (7.8× final test concentration) of compounds were added in 45 μl volumes to a series of duplicate wells in column 2 so as to allow evaluation of their effects on bacterial growth. Serial five-fold dilutions (45 μl in 180 μl) were made directly in the microtiter plates from column 2 to 11 using a customised robot system (Zymark Corp., Hopkinton, Mass.). Pipette tips were changed after every 3 dilutions to minimize pipetting errors with high hydrophobic compounds. Untreated control samples with (column 1) and without (column 12) inoculum were included in each microtiter plate. Approximately 250 CFU per well of bacteria inoculum, in a volume of 100 μl in 2.8× Mueller-Hinton broth medium, was added to the rows A to H, except column 12. The same volume of broth medium without inoculum was added to column 12 in row A to H. The cultures were incubated at 37° C. for 48 hours in a humidified 5% CO2 atmosphere (incubator with open air valve and continuous ventilation). At the end of incubation, two days after inoculation, the bacterial growth was quantitated fluorometrically. Therefore Alamar Blue (10×) was added to all wells in a volume of 20 μl and plates were incubated for another 2 hours at […]
The fluorescence was read in a computer-controlled fluorometer (Cytofluor, Biosearch) at an excitation wavelength of 530 nm and an emission wavelength of 590 nm (gain 30). The % growth inhibition achieved by the compounds was calculated according to standard methods. The pIC50 was defined as the 50% inhibitory concentration for bacterial growth.

Row | melting point [°C] | SMILES | IC50 (M. Smegmatis ATCC607) [nM] | pIC50 (M. Smegmatis ATCC607)
1 | 195 | COc1nc2ccc(Cl)cc2cc1[C@@H](c1ccccc1)[C@@]1(c2cccc3ccccc23)CC[N+](C)(C)CO1.[I-] (single isomer, unassigned) | – | –
2 | 211 | COc1nc2ccc(Cl)cc2cc1[C@@H](c1ccccc1)[C@]1(c2cccc3ccccc23)CC[N+](C)(C)CO1.[I-] (single isomer, unassigned) | – | –
3 | 112 | COc1nc2ccc(Br)cc2cc1[C@@H](c1ccccc1)[C@]1(c2cccc3ccccc23)CCN(C)CO1 (single isomer, unassigned) [Compound 1] | 3.16 | –
4 | 201 | COc1nc2ccc(Br)cc2cc1[C@@H](c1ccc(Cl)cc1)[C@]1(c2cccc3ccccc23)CCN(C)CO1 (single isomer, unassigned) [Compound 2] | 63.1 | –
5 | 189 | COc1nc2ccc(Cl)cc2cc1[C@@H](c1ccccc1)[C@@]1(c2cccc3ccccc23)CCN(C)CO1 (single isomer, unassigned) [Compound 3] | – | 5.1
6 | 108 | COc1nc2ccc(Br)cc2cc1[C@@H](c1ccccc1)[C@@]1(c2cccc3ccccc23)CCN(C)CO1 (single isomer, unassigned) [Compound 11] | 316 | –
7 | 168 | COc1nc2ccc(Br)cc2cc1[C@H](c1ccccc1)C1(c2ccccc2)CCN(C)CO1 (single isomer, unassigned) [Compound 12] | 158 | –

More lines, now with the values behind:

Row | SMILES | melting point [°C] | IC50 (M. Smegmatis ATCC607) [nM] | pIC50 (M. Smegmatis ATCC607)
8 | CCN1CC[C@](c2ccc(F)cc2F)(C(c2ccccc2)c2cc3cc(Br)ccc3nc2OC)OC1=O (single isomer, unassigned) [Compound 5] | 192 | 20000 | –
9 | COc1nc2ccc(-c3ccccc3)cc2cc1[C@@H](c1ccccc1)[C@]1(c2cccc3ccccc23)CCN(C)CO1 (single isomer, unassigned) [Compound 6] | – | 25.1 | –
10 | COc1nc2ccc(Cl)cc2cc1[C@@H](c1ccccc1)[C@@]1(c2cccc3ccccc23)CCN(C)CO1 (single isomer, unassigned) [Compound 7] | – | – | 7.9
11 | COc1ccc2nc(OC)c([C@@H](c3ccccc3)[C@]3(c4cccc5ccccc45)CCN(C)CO3)cc2c1 (single isomer, unassigned) [Compound 8] | – | 63.1 | –
12 | COc1nc2ccc(-c3ccccc3)cc2cc1[C@@H](c1ccccc1)[C@@]1(c2cccc3ccccc23)CCN(C)CO1 (single isomer, unassigned) [Compound 13] | – | 316 | –
13 | COc1ccc2nc(OC)c([C@@H](c3ccccc3)[C@@]3(c4cccc5ccccc45)CCN(C)CO3)cc2c1 (single isomer, unassigned) [Compound 14] | – | 316 | –
14 | COc1nc2ccc(-c3ccco3)cc2cc1[C@@H](c1ccccc1)[C@@]1(c2cccc3ccccc23)CCN(C)CO1 (single isomer, unassigned) [Compound 16] | – | 316 | –
15 | COc1nc2ccc(Br)cc2cc1[C@@H](c1ccc(Cl)cc1)[C@@]1(c2cccc3ccccc23)CCN(C)CO1 (single isomer, unassigned) [Compound 17] | – | 316 | –
16 | CCN1CC[C@@](c2ccc(F)cc2F)(C(c2ccccc2)c2cc3cc(Br)ccc3nc2OC)OC1=O (single isomer, unassigned) [Compound 19] | 216 | – | –
